Measured values published in US5449662A, “Atrial natriuretic peptide clearance inhibitors which resist degradation” (Scios Nova Inc., priority 1992, dated 1995).

Tested on: Female Sprague-Dawley rats
Assay: In vivo diuresis and natriuresis in anesthetized rats
Parameters: species or system rat
Details: 300 ng/kg/min infusion, mean ± SE, n = 7
Method: The ability of analog #1 to effect diuresis and natriuresis in whole animals was determined as follows. Female Sprague-Dawley rats (230-260 g) anesthetized with inactin (100 mg/kg body weight) were catheterized by placing cannulae in femoral artery (B.P. monitoring), femoral vein (infusion of drugs and saline) and bladders (collection of urine). Post surgery, and prior to administration of test substance, saline was infused at 20 ul/min for 45 min in order to stabilize urine flow. Stabilization of urine flow was determined by collection of urine during several 10 min periods. Once stable urine flow was obtained, three 10 min control periods were collected followed by infusion of test compounds at 20 ul/min for 1 hr after priming with 10 times the infusion dose. Following experimental infusion period, saline was infused at 20 ul/min for 2 additional hr during the recovery phase. The urine volume collected during ten minute collection periods was determined gravimetrically. Urinary sodium excretion UNa V was determined photometrically.
Analog #1 infused at 10 ug/kg/min gives a mean 10-fold increase in urinary sodium excretion and a 2- to 3-fold increase in urinary flow rate. Maximal effects are not observed until the second or third experimental collection period and are sustained through the infusion.

hANP(102-126): human atrial natriuretic peptide 102-126, comparison in rat diuresis/natriuresis (WDSSDRSALLKSKLRALLTAPRSLR; Atrial natriuretic factor; UniProt P01160 102-126, looked up, fragment)
UNa V (urinary sodium excretion), difference between experimental and control periods: 2.24 ± 0.77 uEq/min | V (urine flow), difference between experimental and control periods: 16.8 ± 9.3 µL/min
